Reference: the NIST ThermoML archive (doi:10.1016/j.jct.2015.07.047)

Conditions: Liquid, Closed cell (Static) method

Cl[SiH](Cl)Cl [trichlorosilane]
Conditions | vapor or sublimation pressure [kPa]
313.34 K | 134.1
323.33 K | 183.5
333.17 K | 245
343 K | 321
352.96 K | 414.5
362.96 K | 528.8

Cl[Si](Cl)(Cl)Cl [silicon tetrachloride]
Conditions | vapor or sublimation pressure [kPa]
318.27 K | 66.7
328.25 K | 94
338.31 K | 129.8
348.08 K | 172.9
358.17 K | 228.4
368.17 K | 295.3

Cl[SiH2]Cl [dichlorosilane]
Conditions | vapor or sublimation pressure [kPa]
313.36 K | 290.6
323.35 K | 384.1
333.19 K | 496.6
343.04 K | 631.7
352.98 K | 793.4
362.94 K | 982.4
